Test results reported in US11339169B2, “P2X3 and/or P2X2/3 compounds and methods” (Asana BioSciences, LLC, priority 2016, dated 2022).
“And” between values parts separate entries of the source, which are not always exact repeats. Identical values can stand only once.

Experiments:
[1] = molecular target: T1, hP2X3 (Homo sapiens, UniProt P56373); assay: FLIPR intracellular calcium assay, hP2X3; format: cell-based; conditions: human P2X3-HEK cells, agonist at EC75
T1 construct: host or cells: HEK (hP2X3-HEK)
T1 sequence (P56373 1-397): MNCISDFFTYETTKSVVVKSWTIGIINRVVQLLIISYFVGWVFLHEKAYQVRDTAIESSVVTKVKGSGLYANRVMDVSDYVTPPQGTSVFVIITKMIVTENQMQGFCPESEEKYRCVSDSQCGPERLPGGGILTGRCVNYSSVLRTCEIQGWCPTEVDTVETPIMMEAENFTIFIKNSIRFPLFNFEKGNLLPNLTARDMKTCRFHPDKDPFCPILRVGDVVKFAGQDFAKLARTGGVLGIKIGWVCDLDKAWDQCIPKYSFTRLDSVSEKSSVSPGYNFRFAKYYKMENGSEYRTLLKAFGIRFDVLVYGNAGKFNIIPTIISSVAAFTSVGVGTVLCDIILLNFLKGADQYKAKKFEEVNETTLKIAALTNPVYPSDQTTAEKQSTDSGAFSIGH
Excerpt: (§1) The FLIPR® assay utilizes cells which express human or rat P2X3 or P2X2/3 receptors. Recombinant cells expressing hP2X3 (Cat #6188) and hP2X2/3 (Cat #6179) were procured from Chantest Corp. Rat P2X2 (NCBI Accession No: U14414) was amplified by PCR from PC12 cDNA (a rat adrenal medulla cell line). The PCR product obtained containing the protein coding sequence of rat P2X2 was cloned into EcoRV-digested and dephosphorylated vector plRES-puro3 within the multiple cloning site (MCS). See, FIG. 1A.
(§2) (i) Intracellular Calcium Assay Protocol for Screening Compounds
(§3) Cryo-vial containing 6×10^6 cells (human P2X3-HEK/human P2X2/3-TRex293/rat P2X2/3-TRex293/rat P2X3 TRex-CHO) was thawed in a 37° C. water bath. Cells were suspended in 20 mL of respective cell plating media (See annexure for composition) in a 50 mL centrifuge tube. The cell viability was checked with the help of Trypan Blue dye. Upon washing, cells were plated in a black 384-well clear bottomed, sterile poly-D-lysine coated plate such that, each well contained 10,000 cells (15,000/well for hP2X3) in 30 μL cell plating media. The plate was incubated in a 5% CO2 incubator at 37° C. for 24 h.
(§4) The next day, prior to the assay, the cell plating media was removed from each well by decanting and gentle tapping. Thirty μL of FLIPR Calcium 4 dye solution was added to each well. The plate was incubated at 37° C. for 45 min (60 min for hP2X3). The plate was next equilibrated at room temperature for 15 minutes before placing it in a 384 well FLIPR for the assay.
(§5) Compounds were dissolved in DMSO and serially diluted following 11 point half log (3.16 fold) dilution with a starting concentration of 2 mM. Dilutions were mixed with assay buffer just before performing the assay.
(§6) Compounds were added to the respective wells of the assay-ready cell plate with the help of the FLIPR and fluorescence readings were captured for 5 min to observe any possible agonistic property of the compounds. The plate was then incubated at room temperature for 15 min. The cells were stimulated with respective agonist EC75 concentration and the fluorescence readings were captured for another 5 min by FLIPR. The difference in fluorescence readings in presence of the compounds were compared with that of the control wells (wells having no compound) to calculate the inhibitory potency of the compounds. The IC50 values of the compounds were determined using the Graph pad Prism software.
(§7) (ii) Cell Plating Media for hP2X3-HEK and hP2X2/3-TRex293 Cells • DMEM/F12 (1:1) HAM media (Invitrogen; Cat #11039) • 1×NEAA (Invitrogen; Cat #11140) • 25 mM HEPES (Invitrogen; Cat #15630) • 1 mM sodium pyruvate (Invitrogen; Cat #11360) • 10% tetracycline negative FBS (PAA; Cat #A15-209) • 1 μg/mL doxycycline (Clontech; Cat #63131) [for hP2X2/3-TRex293 cells only]
(§8) (v) Assay Buffer Composition • HBSS (Invitrogen Cat #14025) • 20 mM HEPES (Invitrogen Cat #15630) • 0.01% F127 (Sigma Cat #P2443) • 1.8 mM CaCl2 (Sigma Cat #C5080) • pH adjusted to 7.4
(§9) (vi) Dye Solution Composition • 1× FLIPR Calcium 4 dye in assay buffer (Molecular devices Cat #R8141) • 1.8 mM Probenecid (Sigma Cat #P8761) • pH adjusted to 7.4

[2] = molecular target: T2, hP2X2/3 (Homo sapiens, UniProt P56373+Q9UBL9); assay: FLIPR intracellular calcium assay, hP2X2/3; format: cell-based; conditions: human P2X2/3-TRex293 cells, agonist at EC75
T2 construct: host or cells: TRex293 (hP2X2/3-TRex293), doxycycline-induced
T2 sequence (P56373 1-397): T1 sequence (P56373 1-397)
T2 sequence (Q9UBL9 1-471): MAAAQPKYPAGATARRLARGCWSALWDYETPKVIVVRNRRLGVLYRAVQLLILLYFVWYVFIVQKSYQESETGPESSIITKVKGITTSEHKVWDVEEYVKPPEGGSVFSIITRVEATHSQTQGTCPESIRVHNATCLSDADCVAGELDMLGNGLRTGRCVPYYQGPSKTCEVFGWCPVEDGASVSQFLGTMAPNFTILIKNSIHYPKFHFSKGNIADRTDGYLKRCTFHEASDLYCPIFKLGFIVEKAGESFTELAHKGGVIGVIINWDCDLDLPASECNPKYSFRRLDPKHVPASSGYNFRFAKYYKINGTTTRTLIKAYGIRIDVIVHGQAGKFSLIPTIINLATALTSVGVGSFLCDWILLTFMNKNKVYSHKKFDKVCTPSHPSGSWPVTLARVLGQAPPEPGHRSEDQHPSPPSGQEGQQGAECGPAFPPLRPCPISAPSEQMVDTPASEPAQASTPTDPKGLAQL
Excerpt: as §1, §2, §3, §4, §5, §6, §7, §8, §9

Compound	IC50 [1]	IC50 [2] [nM]
CCC(C)n1ncc2nc(N3CCN(C(N)=O)CC3)nc(N[C@H](C)c3cnc4ccccc4c3)c21 (stereo partly drawn) [Example 85]	1 to 100 nM	100 to 1000
CC(=O)N1CCN(c2nc(N[C@H](C)c3cnc4ccccc4c3)c3nn(C(C)C)c(C)c3n2)CC1 [Example 102]	1 to 100 nM	> 10000
CC(=O)N1CCN(c2nc(N[C@H](C)c3cnc4ccccc4c3)c3nn(C(C)C)cc3n2)CC1 [Example 1, 1-{4-[2-Isopropyl-7-((R)-1-quinolin-3-yl-ethylamino)-2H-pyrazolo[4,3-d]pyrimidin-5-yl]-piperazin-1-yl}-ethanone]	1 to 100 nM	> 10000
CCC(CC)n1ncc2nc(N3CCN(C(C)=O)CC3)nc(NC(C)c3ccc4occc4c3)c21 (stereo not drawn) [Example 39]	100 to 1000 nM	1000 to 10000
CCC(C)n1ncc2nc(C(=O)NC3CC3)nc(N[C@@H](c3cnc4ccccc4c3)C3CC3)c21 (stereo partly drawn) [Example 124, 1-sec-Butyl-7-[((R)-cyclopropyl-quinolin-3-yl-methyl)-amino]-1H-pyrazolo[4,3-d]pyrimidine-5-carboxylic Acid Cyclopropylamide]	1 to 100 nM	1000 to 10000
CC(C)n1ncc2nc(N3CCN(C)C(=O)C3)nc(N[C@@H](c3cnc4ccccc4c3)C3CC3)c21 [Example 59]	1 to 100 nM	100 to 1000
CCC(C)n1ncc2nc(-c3cn[nH]c3)nc(N[C@@H](c3cnc4ccccc4c3)C3CC3)c21 (stereo partly drawn) [Example 119]	1 to 100 nM	1000 to 10000
CCC(C)n1ncc2nc(N3CCN(C(C)=O)CC3)nc(NC(c3ccc(-c4ccccc4)nc3)C3CC3)c21 (stereo not drawn) [Example 58]	1 to 100 nM	1000 to 10000
CC(=O)N1CCN(c2nc(NC(C)c3cnc4ccccc4c3)c3nn(C(C)C)c(C)c3n2)CC1 (stereo not drawn) [Example 96]	1 to 100 nM	> 10000
CC(=O)N1CCN(c2nc(N[C@H](C)c3cnc4ccccc4c3)c3c(cnn3CC(C)C)n2)CC1 [Example 16]	1 to 100 nM	1000 to 10000
CCN1CCN(c2nc(N[C@H](C)c3cnc4ccccc4c3)c3c(cnn3C(C)C)n2)CC1=O [Example 23]	1 to 100 nM	1000 to 10000
CC(=O)N1CCN(c2nc(N[C@H](C)c3cnc4ccccc4c3)c3nn(C(C)C)c(C#N)c3n2)CC1 [Example 103]	1 to 100 nM	> 10000
CCC(C)n1ncc2nc(N3CCC(C(N)=O)CC3)nc(N[C@@H](c3cnc4ccccc4c3)C3CC3)c21 (stereo partly drawn) [Example 75]	1 to 100 nM	1000 to 10000

Further lines, results first:

IC50 [1]	IC50 [2] [nM]	Compound
1 to 100 nM	1000 to 10000	CCC(C)n1ncc2nc(N3CCN(C(C)=O)CC3)nc(NC(C)c3ccc(-c4ccccc4)nc3)c21 (stereo not drawn) [Example 52]
1 to 100 nM	1 to 100	CCC(C)n1ncc2nc(N3CCN(/C(N)=N\C#N)CC3)nc(N[C@H](C)c3cnc4ccccc4c3)c21 (stereo partly drawn) [Example 111, 4-(1-sec-butyl-7-{[(R)-methyl(quinolin-3-yl)methyl]amino}-1H-pyrazolo[4,3-d]pyrimidin-5-yl)-N′-cyanopiperazine-1-carboximidamide]
1 to 100 nM	1000 to 10000	CCC(C)n1ncc2nc(-n3cc(C(N)=O)nn3)nc(N[C@@H](c3cnc4ccccc4c3)C3CC3)c21 (stereo partly drawn) [Example 126, 1-{1-sec-Butyl-7-[((R)-cyclopropyl-quinolin-3-yl-methyl)-amino]-1H-pyrazolo[4,3-d]pyrimidin-5-yl}-1H-[1,2,3]triazole-4-carboxylic Acid Amide]
1 to 100 nM	1 to 100	CC[C@H](C)n1ncc2nc(N3CCN(C(N)=O)CC3)nc(N[C@@H](c3cnc4ccccc4c3)C3CC3)c21 [Example 69]
1 to 100 nM	1000 to 10000	CCC(C)n1ncc2nc(-c3cccnn3)nc(N[C@@H](c3cnc4ccccc4c3)C3CC3)c21 (stereo partly drawn) [Example 127, (1-sec-Butyl-5-pyridazin-3-yl-1H-pyrazolo[4,3-d]pyrimidin-7-yl)-((R)-cyclopropyl-quinolin-3-yl-methyl)-amine]
1 to 100 nM	100 to 1000	CCC(CC)n1ncc2nc(N3CCN(C(C)=O)CC3)nc(NC(c3cnc4ccc(F)cc4c3)C3CC3)c21 (stereo not drawn) [Example 65]
1 to 100 nM	1000 to 10000	CCC(C)n1ncc2nc(N3CCN(C(C)=O)CC3)nc(NCC3(c4ccc(Cl)cc4)CCC3)c21 (stereo not drawn) [Example 31]
1 to 100 nM	1000 to 10000	C[C@@H](Nc1nc(N2CCN(C)C(=O)C2)nc2cnn(C3CCC3)c12)c1cnc2ccccc2c1 [Example 49]
1 to 100 nM and 100 to 1000 nM	1000 to 10000	CCC(C)n1ncc2nc(-n3cncn3)nc(N[C@@H](c3cnc4ccccc4c3)C3CC3)c21 (stereo partly drawn) [Example 77]
1 to 100 nM	1000 to 10000	CCC(C)n1ncc2nc(N3CCN(C(N)=O)CC3)nc(N[C@H](C)c3cn4ccc(C)cc4n3)c21 (stereo partly drawn) [Example 84]
1 to 100 nM	1000 to 10000	NC(=O)N1CCN(c2nc(N[C@@H](c3cnc4ccccc4c3)C3CC3)c3c(cnn3C3CCOCC3)n2)CC1 [Example 72]
1 to 100 nM	1 to 100	CCC(CC)n1ncc2nc(N3CCN(C(C)=O)CC3)nc(N[C@H](C)c3cnc4ccccc4c3)c21 [Example 22]
1 to 100 nM	1000 to 10000	CC(=O)N1CCN(c2nc(N[C@H](C)c3cnc4ccccc4c3)c3c(cnn3C3CCCC3)n2)CC1 [Example 25]
100 to 1000 nM	> 10000	CC(=O)N1CCN(c2nc(N[C@H](C)c3cnc4ccccc4c3)c3nn(CC(C)C)cc3n2)CC1 [Example 7]
1 to 100 nM	1000 to 10000	CC[C@H](C)n1ncc2nc(N3CCN(C(N)=O)CC3)nc(NC(c3ccc4c(cnn4CC)c3)C3CC3)c21 (stereo partly drawn) [Example 80]
1 to 100 nM	1000 to 10000	CCC(C)n1nc(C#N)c2nc(N3CCN(C(C)=O)CC3)nc(N[C@H](C)c3cnc4ccccc4c3)c21 (stereo partly drawn) [Example 91, 5-(4-Acetyl-piperazin-1-yl)-1-sec-butyl-7-((R)-1-quinolin-3-yl-ethylamino)-1H-pyrazolo[4,3-d]pyrimidine-3-carbonitrile]
1 to 100 nM	1000 to 10000	CCC(C)n1ncc2nc(N3CCN(S(N)(=O)=O)CC3)nc(N[C@@H](c3cnc4ccccc4c3)C3CC3)c21 (stereo partly drawn) [Example 108, 4-{1-sec-Butyl-7-[((R)-cyclopropyl-quinolin-3-yl-methyl)-amino]-1H-pyrazolo[4,3-d]pyrimidin-5-yl}-piperazine-1-sulfonic acid amide]
